Experimental data published in PMC13541837, “High-yield production and functional analysis of novel rhizobial-type glutaminase-free L-asparaginase from Paenibacillus thiaminolyticus” (Folia Microbiologica, 2025).

Tests used:
ASN339Pt iso 1 [1] = molecular target: T1, ASN339Pt iso 1 (Paenibacillus thiaminolyticus, UniProt A0AAP9J308); test: ammonia release, Nessler's reagent, […] nm; modified substrate inhibition model (Eq. […], n = […]); format: biochemical; settings: 100 mM Tris pH 9.0, 37 °C, 10 min (standard assay); L-asparagine 1.9-145 mmol L^-1; fit with substrate inhibition; read-out: Results (according to Eq. (2))
T1 construct: gene M5W83_23570; motifs RSSSKPVQAL and NCSGKHLGV; not isoenzyme 2 WP_087440700.1

ASN339Pt iso 1 [2] = molecular target: T1, ASN339Pt iso 1; test: as above; format: biochemical; settings: 100 mM Tris pH 9.0, 37 °C, 10 min (standard assay); L-asparagine 1.9-145 mmol L^-1; fit with substrate inhibition; substrate inhibition constant, two additional substrate molecules (n = 2), active sit
[3] = molecular target: L-asparaginase from Paenibacillus thiaminolyticus (isoenzyme 1) (Paenibacillus thiaminolyticus); test: SEC; HiPrep 16/60 Sephacryl S-100 HR, flow rate 0.5 mL/min, 50 mM phosphate (K+) buffer pH 8.0; standards lysozyme (14 kDa), amylase (55 kDa), aldolase (160 kDa)

T1 sequence (A0AAP9J308 entry or part of it): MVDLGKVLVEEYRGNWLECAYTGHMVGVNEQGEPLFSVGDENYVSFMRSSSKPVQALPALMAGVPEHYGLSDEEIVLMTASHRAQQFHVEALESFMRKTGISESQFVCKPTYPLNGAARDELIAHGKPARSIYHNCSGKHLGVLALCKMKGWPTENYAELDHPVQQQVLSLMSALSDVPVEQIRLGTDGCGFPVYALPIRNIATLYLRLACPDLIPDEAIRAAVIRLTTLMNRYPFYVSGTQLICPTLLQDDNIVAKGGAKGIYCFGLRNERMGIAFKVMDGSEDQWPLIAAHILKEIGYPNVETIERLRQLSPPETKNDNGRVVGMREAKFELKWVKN

NC(=O)C[C@H](N)C(=O)O [L-asparagine]
Km (ASN339Pt iso 1 [1]): 26 ± 8 mM
Results (according to Eq. (2)) (ASN339Pt iso 1 [2]): 32 ± 5 mmol/L

L-asparaginase from Paenibacillus thiaminolyticus (isoenzyme 1)
stoichiometry N [3]: 2
